We go through three substances from patent US9192667B2, “Method of treating cancer by administering CSF-1R antibodies and a TLR9 agonist” (Hoffmann-La Roche Inc., priority 2013, dated 2015).

Series [1] has as its system MC38 mouse CRC in vivo model. In words: Tumor growth inhibition in subcutaneous syngeneic MC38 colon carcinoma model. Particulars: antibody 30 mg/kg i.p. weekly, CpG ODN 1826 100 μg peritumoral 1×; for TGI (day 24): versus control antibody. The text has this: Additionally to the assessment of median tumor volume after 2 weeks of treatment the progression of individual tumors in the study was followed until progression ≧700 mm3 (FIG. 1 (CpG is TLR9 agonist CpG ODN 1826) and Table 11)

For series [2], the system named is lymphoma. Particulars: phase 1/1 I clinical study; cited from earlier work.
For series [3] the following is noted: phase 1/1 I clinical study; cited from earlier work.
For series [4] the following is noted: SCID mouse; cited from earlier work.

On to CpG ODN 1826, for which, in series [1], the “Median time to progression TV > 700 mm3” value stood at 24 days, the “TCR (day 24)” value is listed as 0.28 and the “TGI (day 24)” value was 74%. In series [1] (listed as TLR9 agonist (CpG)), the “TGI (day 24)” value turned out to be 73%.
Consider “d(P-Thio)(TCGTCGTTTTGTCGTTTTGTCGTT)DNA [CpG-7909]”, for which the “antilymphoma activity” value in series [2] is on record as “antilymphoma activity”. Also, in series [3], the “tolerability” value was “well tolerated”.
On to “CpG-685: synthetic, 21-mer fully phosphorothioated CpG ODN 5′-tcgtcgacgtcgttcgttctc-3′ (SEQ ID NO: 93), SBI Biotech (DNA TCGTCGACGTCGTTCGTTCTC; DNA, all phosphorothioate, methylation of C not given here)”, for which the “antitumor effects” value in series [4] is given as “showed antitumor effects”.
